# Laboratory results as given in ChEMBL document CHEMBL1159284, “A Short Enantioselective Synthesis of a Biologically Active Compound from Persea americana” (J Nat Prod, 1995).
# Columns and labels:
# [1] = system: Mus musculus; assay: Toxicity in lactating mouse assessed as widespread mammary gland necrosis at 200 mg/kg; assay type: organism-based; parameters: dose 200 mg/kg; conditions: in vivo
# [2] = system: Mus musculus; assay: Toxicity in lactating mouse assessed as widespread mammary gland necrosis at 50 to 100 mg/kg; assay type: organism-based; parameters: dose 50-100 mg/kg; conditions: in vivo
structure (smiles),measurement,setting,value
CCCCC/C=C\C/C=C\CCCCCCCC(=O)C[C@H](O)COC(C)=O,Activity,[1],Not Active
CCCCC/C=C\C/C=C\CCCCCCCC(=O)C[C@@H](O)COC(C)=O,Activity,[2],Active
